Laboratory results: ChEMBL document CHEMBL3046088, “Systemic effects of thiamethoxam and chlorantraniliprole seed treatments on adult Lissorhoptrus oryzophilus (Coleoptera: Curculionidae) in rice” (2013)
Active and inactive are the calls of the source. No cut-off for these calls is given here.

Assays:
[1] = test system: Lissorhoptrus oryzophilus; assay: Insecticidal activity against Lissorhoptrus oryzophilus in rice plants assessed as leaf consumption rate per day at 10 ug treated as seed measured after 72 hr of feeding (reference value: 8.3 +/- 0.7 mm'2 /day); type: functional
[2] = test system: Lissorhoptrus oryzophilus; assay: Insecticidal activity against Lissorhoptrus oryzophilus in rice plants assessed as mortality at 100 ug treated as seed measured after 72 hr of feeding (reference value: 15 +/- 2.9%); type: functional
[3] = test system: Lissorhoptrus oryzophilus; assay: Insecticidal activity against Lissorhoptrus oryzophilus in rice plants assessed as leaf consumption rate per day at 50 ug treated as seed measured after 72 hr of feeding (reference value: 8.3 +/- 0.7 mm'2 /day); type: functional
[4] = test system: Lissorhoptrus oryzophilus; assay: Insecticidal activity against Lissorhoptrus oryzophilus in rice plants assessed as mortality at 50 ug treated as seed measured after 72 hr of feeding (reference value: 15 +/- 2.9%); type: functional
[5] = test system: Lissorhoptrus oryzophilus; assay: Insecticidal activity against Lissorhoptrus oryzophilus in rice plants assessed as leaf consumption rate per day at 100 ug treated as seed measured after 72 hr of feeding (reference value: 8.3 +/- 0.7 mm'2 /day); type: functional
[6] = test system: Lissorhoptrus oryzophilus; assay: Insecticidal activity against Lissorhoptrus oryzophilus in rice plants assessed as leaf consumption rate per day at 25 ug treated as seed measured after 72 hr of feeding (reference value: 8.3 +/- 0.7 mm'2 /day); type: functional
[7] = test system: Lissorhoptrus oryzophilus; assay: Insecticidal activity against Lissorhoptrus oryzophilus in rice plants assessed as mortality at 10 ug treated as seed measured after 72 hr of feeding (reference value: 15 +/- 2.9%); type: functional
[8] = test system: Lissorhoptrus oryzophilus; assay: Insecticidal activity against Lissorhoptrus oryzophilus in rice plants assessed as mortality at 25 ug treated as seed measured after 72 hr of feeding (reference value: 15 +/- 2.9%); type: functional
[9] = test system: Lissorhoptrus oryzophilus; assay: Insecticidal activity against Lissorhoptrus oryzophilus in rice plants assessed as leaf consumption rate per day at 21 ug treated as seed measured after 72 hr of feeding (reference value: 8.3 +/- 0.5 mm'2 /day); type: functional
[10] = test system: Lissorhoptrus oryzophilus; assay: Insecticidal activity against Lissorhoptrus oryzophilus in two to three-leaf stage rice plants assessed as mortality treated as seed measured after 72 hr of feeding; type: functional
[11] = test system: Lissorhoptrus oryzophilus; assay: Insecticidal activity against Lissorhoptrus oryzophilus in rice plants assessed as mortality at 21 ug treated as seed measured after 72 hr of feeding (reference value: 3.8 +/- 1.8%); type: functional
[12] = test system: Lissorhoptrus oryzophilus; assay: Insecticidal activity against Lissorhoptrus oryzophilus in rice plants assessed as leaf consumption rate per day at 28 ug treated as seed measured after 72 hr of feeding (reference value: 8.3 +/- 0.5 mm'2 /day); type: functional
[13] = test system: Lissorhoptrus oryzophilus; assay: Insecticidal activity against Lissorhoptrus oryzophilus in rice plants assessed as leaf consumption rate per day at 14 ug treated as seed measured after 72 hr of feeding (reference value: 8.3 +/- 0.5 mm'2 /day); type: functional
[14] = test system: Lissorhoptrus oryzophilus; assay: Insecticidal activity against Lissorhoptrus oryzophilus in rice plants assessed as mortality at 28 ug treated as seed measured after 72 hr of feeding (reference value: 3.8 +/- 1.8%); type: functional
[15] = test system: Lissorhoptrus oryzophilus; assay: Insecticidal activity against Lissorhoptrus oryzophilus in three to four-leaf stage rice plants assessed as mortality treated as seed measured after 72 hr of feeding; type: functional
[16] = test system: Lissorhoptrus oryzophilus; assay: Insecticidal activity against Lissorhoptrus oryzophilus in five to six-leaf stage rice plants assessed as mortality treated as seed measured after 72 hr of feeding; type: functional, organism-based
[17] = test system: Lissorhoptrus oryzophilus; assay: Insecticidal activity against Lissorhoptrus oryzophilus in rice plants assessed as leaf consumption rate per day at 35 ug treated as seed measured after 72 hr of feeding (reference value: 8.3 +/- 0.5 mm'2 /day); type: functional
[18] = test system: Lissorhoptrus oryzophilus; assay: Insecticidal activity against Lissorhoptrus oryzophilus in rice plants assessed as mortality at 14 ug treated as seed measured after 72 hr of feeding (reference value: 3.8 +/- 1.8%); type: functional
[19] = test system: Lissorhoptrus oryzophilus; assay: Insecticidal activity against Lissorhoptrus oryzophilus in rice plants assessed as leaf consumption rate per day at 7 ug treated as seed measured after 72 hr of feeding (reference value: 8.3 +/- 0.5 mm'2 /day); type: functional
[20] = test system: Lissorhoptrus oryzophilus; assay: Insecticidal activity against Lissorhoptrus oryzophilus in rice plants assessed as mortality at 35 ug treated as seed measured after 72 hr of feeding (reference value: 3.8 +/- 1.8%); type: functional
[21] = test system: Lissorhoptrus oryzophilus; assay: Insecticidal activity against Lissorhoptrus oryzophilus in rice plants assessed as mortality at 7 ug treated as seed measured after 72 hr of feeding (reference value: 3.8 +/- 1.8%); type: functional

Compound `CNC(=O)c1cc(Cl)cc(C)c1NC(=O)c1cc(Br)nn1-c1ncccc1Cl` [CHLORANTRANILIPROLE] has an Activity [1] of 8.3 mm2, a mortality [2] of 16.3% and an Activity [3] of 7.3 mm2. For the same compound, the mortality [4] was 12.5%, the Activity [5] was 9.4 mm2 and the Activity [6] was 6.7 mm2. For the same compound, the mortality [7] was 10% and the mortality [8] was 20%.
Compound `CN1COCN(Cc2cnc(Cl)s2)/C1=N\[N+](=O)[O-]` [THIAMETHOXAM] has an Activity [9] of 5.5 mm2, an LC50 [10] of 447 pg and a mortality [11] of 28.8%. The Activity [12] was 5.2 mm2, the Activity [13] was 6.6 mm2 and the mortality [14] was 42.5%. For the same compound, the LC50 [15] was 142 pg, the Activity [16] was “Active” and the Activity [17] was 6.4 mm2. The mortality [18] was 21.3%, the Activity [19] was 6.9 mm2 and the mortality [20] was 45%. The mortality [21] was 22.5%.
